Results from patent US20260097036A1 (Kadmon Corporation, LLC, priority 2022, published 2026).
Read-outs that look alike come from different tables or passages of the source.

What was measured:
[1] = Part 2 relative bioavailability and food effect, plasma PK; assay type: in vivo, human; details: for Tlag / AUC % extrap / Lambda-z / half-life / Tmax / AUC(0-inf) / AUC(0-t) / Cmax / Vd/F: plasma; for half-life / Tmax / AUC(0-inf) / AUC(0-t) / Cmax / Vd/F: male, human, 200 mg; for Cmax: read-out: Cmax; for Vd/F: read-out: Vz/F
Experimental: Subjects underwent preliminary screening procedures to determine their eligibility for Part 2 of the study at the screening visit (Day −28 to Day −2 of Part 2). Subjects who took part in Part 1 of the study were permitted to take part in Part 2.
Three different regimens (G, H, and I), were used over the three periods. In Regimen G, belumosudil was administered in Tablet form (reference); and in Regimens H and I, belumosudil was administered in the form of Oral Liquid Formulation.
In Period 1, Day 1: subjects were randomized prior to administration of the first dose of IMP to 1 of 6 treatment sequences (GHI, HIG, IGH, IHG, GIH and HGI) with 3 subjects assigned to each treatment sequence. On Day 1 of each study period (periods 1, 2 and 3), subjects received the regimens in Table 36:
Regimen H was administered to subjects as a flavorless low sucralose liquid formulation in a fasted state, and Regimens G and I were administered to subjects in a fed state. Regimen G was administered with a total of 240 mL of water. For Regimens H and I, immediately after IMP administration, subjects consumed water to a total volume of 240 mL (including the dosing volume).
Subjects received a single dose of IMP in the morning of Day 1 following an overnight fast of a minimum of 10 h (Regimen H, fasted state) or following a standard breakfast (Regimens G and I, fed state). Blood samples were collected at regular intervals for PK analysis. Following administration of Regimen H, subjects completed a written taste/palatability questionnaire individually and privately.
Subjects were resident in the clinical unit for 10 consecutive nights that covered all 3 treatment periods. All subjects remained on site until 72 h post-final dose for safety and PK assessments. There was a minimum washout of 3 days between each IMP administration. To ensure the ongoing wellbeing of the subjects, a follow-up phone call took place 3 to 7 days post-final dose. If a subject reported any AEs after discharge which represented a cause for concern, they were required to attend the clinical unit for a follow-up assessment. This would have been an unscheduled visit.

[2] = solubility and natural pH of the API; assay type: physicochemical
[3] = excipient compatibility testing of dry binary mixes; assay type: physicochemical; details: binary mixes 1:1; 2-8° C. and 40° C./75% RH, over a 14-day period
Experimental: The dry binary mixes were analyzed for appearance and related substances after storage at 2-8° C. (control storage condition) and 40° C./75% RH for 14 days and 28 days. The binary mixes were also tested for visual appearance at initial mixing.

pro-fibrotic signaling = details: in vitro; cited from earlier work
animal models of cGVHD = details: in vivo; cited from earlier work
[4] = cited from earlier work
[5] = stability study with pH modifiers, XRPD of isolated solids (samples 2.1-2.6); assay type: physicochemical; details: T = 28 days 40° C./75% RH
Experimental: Samples were prepared containing sodium benzoate as a preservative and with the pH adjusted with either citric acid or tartaric acid which were compared with samples having no pH modifier.
The above samples were prepared for XRPD analysis in three steps: solids were isolated by centrifugation at 3000 rpm for 20 minutes; the supernatant was decanted; and the samples were dried under vacuum at ambient temperature for 18-24 hours overnight. XRPD data of the solid samples was obtained.

[6] = po, Regimen G: 200 mg Tablet, Fed, single oral dose, geometric mean (CV%)
[7] = po, Regimen H: 200 mg Liquid Formulation, Fasted, single oral dose, geometric mean (CV%)
[8] = po, Regimen I: 200 mg Liquid Formulation, Fed, single oral dose, geometric mean (CV%)

With `CC(C)NC(=O)COc1cccc(-c2nc(Nc3ccc4[nH]ncc4c3)c3ccccc3n2)c1` [Belumosudil, 2-{3-[4-(1H-indazol-5-ylamino)-2-quinazolinyl]phenoxy}-N-(propan-2-yl)acetamide, reference compound] the Tlag ([1]; Regimen G: 200 mg Tablet, Fed, single oral dose, healthy male volunteers, median (range)) was 0.500 h, the AUC % extrap ([1]; Regimen G: 200 mg Tablet, Fed, single oral dose, geometric mean (CV%)) was 2.601 (44.8%) and the Lambda-z ([1]; Regimen G: 200 mg Tablet, Fed, single oral dose, geometric mean (CV%), individual values where n <= 2) was 0.074 (57.7%) l/h. For the same compound, the Tlag ([1]; Regimen H: 200 mg Liquid Formulation, Fasted, single oral dose, healthy male volunteers, median (range)) was 0.00 h, the AUC % extrap ([1]; Regimen H: 200 mg Liquid Formulation, Fasted, single oral dose, geometric mean (CV%)) was 2.785 (50.4%) and the Lambda-z ([1]; Regimen H: 200 mg Liquid Formulation, Fasted, single oral dose, geometric mean (CV%), individual values where n <= 2) was 0.073 (43.5%) l/h. For the same compound, the Tlag ([1]; Regimen I: 200 mg Liquid Formulation, Fed, single oral dose, healthy male volunteers, median (range)) was 0.00 h, the AUC % extrap ([1]; Regimen I: 200 mg Liquid Formulation, Fed, single oral dose, geometric mean (CV%)) was 1.918 (34.9%) and the Lambda-z ([1]; Regimen I: 200 mg Liquid Formulation, Fed, single oral dose, geometric mean (CV%), individual values where n <= 2) was 0.102 (49.2%) l/h. For the same compound, the “peak (Cmax) and total exposure (AUC), liquid formulation vs tablet” value ([1]; both in the fed state, GMR comparison) was “largely similar to that of the tablet reference”, the “time from which concentrations were evident” value ([1]; liquid formulation, fasted and fed (Regimens H and I)) was 0.5 h and the half-life ([1]; oral, Regimen G, tablet fed, read-out: elimination half-lives (range)) was 4.84 to 33 h. It also gave a half-life ([1]; oral, Regimen H, liquid formulation fasted, read-out: elimination half-lives (range)) of 5.36 to 23.8 h, a half-life ([1]; oral, Regimen I, liquid formulation fed, read-out: elimination half-lives (range)) of 2.38 to 15.7 h and a half-life ([1]; oral, Regimens G, H, I, read-out: geometric mean half-life (range over regimens)) of 6.79 to 9.5 h. For the same compound, the Tmax ([1]; po, Regimen G: 200 mg Tablet, Fed, single oral dose, healthy male volunteers, median (range), read-out: Tmax) was 3 h, the AUC(0-inf) [1, 6] was 10200 ng·h/mL and the half-life ([1]; po, Regimen G: 200 mg Tablet, Fed, single oral dose, geometric mean (CV%), individual values where n <= 2, read-out: T1/2 (converted)) was 9.39 h. It also gave an AUC(0-t) ([1]; po, Regimen G: 200 mg Tablet, Fed, single oral dose, geometric mean (CV%), read-out: AUC (0-24)) of 9310 ng·h/mL, an AUC(0-t) ([1]; po, Regimen G: 200 mg Tablet, Fed, single oral dose, geometric mean (CV%), read-out: AUC (0-last)) of 9720 ng·h/mL and a Cmax [1, 6] of 1930 ng/mL. The Vd/F [1, 6] was 265 L, the Tmax ([1]; po, Regimen H: 200 mg Liquid Formulation, Fasted, single oral dose, healthy male volunteers, median (range), read-out: Tmax) was 1.5 h and the AUC(0-inf) [1, 7] was 8430 ng·h/mL. For the same compound, the half-life ([1]; po, Regimen H: 200 mg Liquid Formulation, Fasted, single oral dose, geometric mean (CV%), individual values where n <= 2, read-out: T1/2 (converted)) was 9.5 h, the AUC(0-t) ([1]; po, Regimen H: 200 mg Liquid Formulation, Fasted, single oral dose, geometric mean (CV%), read-out: AUC (0-24)) was 7620 ng·h/mL and the AUC(0-t) ([1]; po, Regimen H: 200 mg Liquid Formulation, Fasted, single oral dose, geometric mean (CV%), read-out: AUC (0-last)) was 8010 ng·h/mL. For the same compound, the Cmax [1, 7] was 1550 ng/mL, the Vd/F [1, 7] was 325 L and the AUC(0-inf) [1, 8] was 9500 ng·h/mL. The half-life ([1]; po, Regimen I: 200 mg Liquid Formulation, Fed, single oral dose, geometric mean (CV%), individual values where n <= 2, read-out: T1/2 (converted)) was 6.79 h, the AUC(0-t) ([1]; po, Regimen I: 200 mg Liquid Formulation, Fed, single oral dose, geometric mean (CV%), read-out: AUC (0-24)) was 9340 ng·h/mL and the AUC(0-t) ([1]; po, Regimen I: 200 mg Liquid Formulation, Fed, single oral dose, geometric mean (CV%), read-out: AUC (0-last)) was 9570 ng·h/mL. The Cmax [1, 8] was 1790 ng/mL, the Vd/F [1, 8] was 206 L and the Tmax ([1]; po, single oral 200 mg as liquid formulation, fasted state, read-out: median Tmax) was 1.5 h. The Tmax ([1]; po, single oral 200 mg as tablet reference, fed, read-out: median Tmax) was 3 h, the “natural pH of API in water” value ([2]; API in water) was roughly 3 pH and the solubility ([2]; at pH 2.0-3.0) was “soluble”. For the same compound, the “compatibility with hydrochloric acid and maleic acid” value [3] was “not compatible”, the aberrant pro-fibrotic signaling (pro-fibrotic signaling) was “inhibited aberrant pro-fibrotic signaling” and the “activity in animal models of cGVHD” value (animal models of cGVHD) was “demonstrated activity”. For the same compound, the solubility in water [4] was “practically insoluble” and the “XRPD of isolated solids (form stability)” value [5] was “stable in the formulation”.
